This is an account of results in ChEMBL document CHEMBL1130263 (J Med Chem, 1997).

One assay deals with D(1A) dopamine receptor (Rattus norvegicus, UniProt P18901).
Assay [1] has as its target T1, Muscarinic acetylcholine receptor M1 (Homo sapiens, UniProt P11229).
T1 sequence (P11229 whole entry): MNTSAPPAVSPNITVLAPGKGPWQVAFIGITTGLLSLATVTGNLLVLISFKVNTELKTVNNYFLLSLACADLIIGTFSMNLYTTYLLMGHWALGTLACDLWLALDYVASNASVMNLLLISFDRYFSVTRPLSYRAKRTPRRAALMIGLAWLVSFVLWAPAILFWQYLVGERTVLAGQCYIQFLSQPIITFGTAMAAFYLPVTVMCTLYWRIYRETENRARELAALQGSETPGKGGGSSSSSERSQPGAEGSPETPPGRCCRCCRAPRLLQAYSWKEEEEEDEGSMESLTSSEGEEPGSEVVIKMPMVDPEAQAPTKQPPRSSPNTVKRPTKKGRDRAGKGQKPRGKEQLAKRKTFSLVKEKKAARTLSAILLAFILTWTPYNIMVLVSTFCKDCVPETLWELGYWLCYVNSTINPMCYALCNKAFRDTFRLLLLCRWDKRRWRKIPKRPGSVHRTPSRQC
The experiment in a line: Inhibitory binding of [3H]pirenzepine to human Muscarinic acetylcholine receptor M1 in membranes from CHO-K1 cells. It counts as cell-based.

In assay [2] the target is T2, 5-hydroxytryptamine receptor 2C (Rattus norvegicus, UniProt P08909).
T2 sequence (P08909 whole entry): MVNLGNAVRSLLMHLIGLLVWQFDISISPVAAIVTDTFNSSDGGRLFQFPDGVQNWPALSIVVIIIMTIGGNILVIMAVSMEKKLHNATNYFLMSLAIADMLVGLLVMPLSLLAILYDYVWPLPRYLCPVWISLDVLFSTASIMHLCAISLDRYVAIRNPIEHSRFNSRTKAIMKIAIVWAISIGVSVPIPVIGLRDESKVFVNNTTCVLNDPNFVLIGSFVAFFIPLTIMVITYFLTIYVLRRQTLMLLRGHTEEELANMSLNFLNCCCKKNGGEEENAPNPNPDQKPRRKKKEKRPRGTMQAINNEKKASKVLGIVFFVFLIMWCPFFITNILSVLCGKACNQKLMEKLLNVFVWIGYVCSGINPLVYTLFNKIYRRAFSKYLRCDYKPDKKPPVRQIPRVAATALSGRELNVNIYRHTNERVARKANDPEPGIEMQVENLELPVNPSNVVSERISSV
Description: Inhibition of [3H]mesulergine binding to 5-hydroxytryptamine 2C receptor in rat brain membranes

For assay [3], the target named is T3, Adrenergic receptor alpha-1 (Rattus norvegicus, UniProt P15823+P23944+P43140).
T3 sequence (P15823 whole entry): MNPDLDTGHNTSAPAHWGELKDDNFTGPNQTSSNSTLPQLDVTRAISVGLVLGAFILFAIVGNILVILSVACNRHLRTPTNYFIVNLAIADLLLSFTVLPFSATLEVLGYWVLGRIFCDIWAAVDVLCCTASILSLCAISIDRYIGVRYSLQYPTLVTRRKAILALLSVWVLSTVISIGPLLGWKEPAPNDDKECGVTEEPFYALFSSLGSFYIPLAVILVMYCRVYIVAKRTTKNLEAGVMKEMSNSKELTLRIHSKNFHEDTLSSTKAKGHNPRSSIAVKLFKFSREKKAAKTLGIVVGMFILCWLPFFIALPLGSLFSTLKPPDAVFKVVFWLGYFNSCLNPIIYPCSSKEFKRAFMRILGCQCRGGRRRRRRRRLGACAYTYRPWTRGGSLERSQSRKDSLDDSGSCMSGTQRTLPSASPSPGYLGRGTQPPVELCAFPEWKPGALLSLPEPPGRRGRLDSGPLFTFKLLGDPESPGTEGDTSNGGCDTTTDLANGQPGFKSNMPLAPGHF
T3 sequence (P23944 whole entry): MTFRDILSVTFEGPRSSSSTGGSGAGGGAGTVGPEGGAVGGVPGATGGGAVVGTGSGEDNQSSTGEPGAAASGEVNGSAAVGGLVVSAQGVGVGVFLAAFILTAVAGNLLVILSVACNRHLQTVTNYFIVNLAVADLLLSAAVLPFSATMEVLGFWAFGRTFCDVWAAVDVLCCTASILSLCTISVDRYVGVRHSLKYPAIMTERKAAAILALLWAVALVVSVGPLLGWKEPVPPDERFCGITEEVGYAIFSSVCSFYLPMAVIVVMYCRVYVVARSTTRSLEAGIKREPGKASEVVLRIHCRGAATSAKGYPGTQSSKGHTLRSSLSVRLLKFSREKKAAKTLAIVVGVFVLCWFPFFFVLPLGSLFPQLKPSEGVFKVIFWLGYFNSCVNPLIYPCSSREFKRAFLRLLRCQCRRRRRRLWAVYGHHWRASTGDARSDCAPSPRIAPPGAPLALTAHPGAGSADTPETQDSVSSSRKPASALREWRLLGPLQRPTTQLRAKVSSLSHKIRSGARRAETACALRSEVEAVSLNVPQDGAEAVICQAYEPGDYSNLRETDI
T3 sequence (P43140 whole entry): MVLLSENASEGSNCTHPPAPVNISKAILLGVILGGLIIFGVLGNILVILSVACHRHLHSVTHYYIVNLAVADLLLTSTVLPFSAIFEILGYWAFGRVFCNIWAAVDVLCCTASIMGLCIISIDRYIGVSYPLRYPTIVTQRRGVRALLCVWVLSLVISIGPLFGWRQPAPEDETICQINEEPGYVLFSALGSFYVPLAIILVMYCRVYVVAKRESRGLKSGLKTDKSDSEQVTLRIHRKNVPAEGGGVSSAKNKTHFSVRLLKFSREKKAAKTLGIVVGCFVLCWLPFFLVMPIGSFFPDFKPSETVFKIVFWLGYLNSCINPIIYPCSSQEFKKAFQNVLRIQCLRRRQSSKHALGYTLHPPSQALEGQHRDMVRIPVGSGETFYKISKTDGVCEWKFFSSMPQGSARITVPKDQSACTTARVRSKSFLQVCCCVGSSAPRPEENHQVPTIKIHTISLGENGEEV
Kind of assay: Inhibition of [3H]prazosin binding to Alpha-1 adrenergic receptor in rat brain membranes.

The target of assay [4] is 5-hydroxytryptamine receptor 2A (Rattus norvegicus, UniProt P14842). The experiment in a line: Inhibition of [3H]ketanserin binding to 5-hydroxytryptamine 2A receptor from rat brain.
Sequence of 5-hydroxytryptamine receptor 2A (P14842 whole entry): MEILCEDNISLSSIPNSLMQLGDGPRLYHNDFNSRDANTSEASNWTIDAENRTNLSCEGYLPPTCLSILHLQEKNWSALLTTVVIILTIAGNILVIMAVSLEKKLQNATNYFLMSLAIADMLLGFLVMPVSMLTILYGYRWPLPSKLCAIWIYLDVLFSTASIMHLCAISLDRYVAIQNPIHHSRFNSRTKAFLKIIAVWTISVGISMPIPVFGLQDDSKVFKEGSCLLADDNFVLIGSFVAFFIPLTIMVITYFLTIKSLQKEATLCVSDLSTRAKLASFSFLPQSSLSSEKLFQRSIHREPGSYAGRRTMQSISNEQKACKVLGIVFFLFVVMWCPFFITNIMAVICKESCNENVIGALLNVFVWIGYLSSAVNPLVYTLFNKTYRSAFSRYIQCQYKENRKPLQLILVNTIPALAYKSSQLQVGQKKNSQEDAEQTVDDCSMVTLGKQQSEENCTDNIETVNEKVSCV
A further assay concerns the target Histamine H1 receptor (Rattus norvegicus, UniProt P31390). The experiment in a line: Inhibitory binding of [3H]mepyramine to histamine H1 receptors in rat brain membranes. It counts as cell membranes.
In assay [5] the test system is Rattus norvegicus. Kind of assay: Locomotor activity in male Wistar rats after a dose of 100 uM/kg, 30 min before 1 mg/kg of apomorphine administration. It counts as functional.
In assay [6] the test system is Rattus norvegicus. The experiment in a line: Locomotor activity in male Wistar rats after a dose of 3 uM/kg, 30 min before 1 mg/kg of apomorphine administration. The assay is classed as functional.
Assay [7] has as its system Rattus norvegicus. The experiment in a line: Catalytic action on male Wistar rats after subcutaneous administration of 10 µmol/kg dose of compound.
In assay [8] the test system is Rattus norvegicus. Kind of assay: Locomotor activity in male Wistar rats after a dose of 10 uM/kg, 30 min before 1 mg/kg of apomorphine administration. The assay is classed as functional.
In assay [9] the test system is Rattus norvegicus. Kind of assay: Catalytic action on male Wistar rats after subcutaneous administration of 100 µmol/kg dose of compound.
Assay [10] deals with Rattus norvegicus. Kind of assay: Locomotor activity in male Wistar rats after a dose of 30 uM/kg, 30 min before 1 mg/kg of apomorphine administration. The assay is classed as functional.
Assay [11] deals with Rattus norvegicus. The experiment in a line: Catalytic action on male Wistar rats after subcutaneous administration of 0.03 µmol/kg dose of compound.
Assay [12] concerns Rattus norvegicus. Kind of assay: Locomotor activity in male Wistar rats after a dose of 0.03 uM/kg, 30 min before 1 mg/kg of apomorphine administration. It counts as functional.
For assay [13], the system named is Rattus norvegicus. Kind of assay: Catalytic action on male Wistar rats after subcutaneous administration of 0.3 µmol/kg dose of compound.
The subject of assay [14] is Rattus norvegicus. The experiment in a line: Catalytic action on male Wistar rats after subcutaneous administration of 0.003 µmol/kg dose of compound.
Assay [15] has as its system Rattus norvegicus. Kind of assay: Locomotor activity in male Wistar rats after a dose of 0.3 uM/kg, 30 min before 1 mg/kg of apomorphine administration. It counts as functional.
Assay [16] concerns Rattus norvegicus. Kind of assay: Locomotor activity in male Wistar rats after a dose of 0.003 uM/kg, 30 min before 1 mg/kg of apomorphine administration. The assay is classed as functional.
For assay [17], the system named is Rattus norvegicus. Kind of assay: Catalytic action on male Wistar rats after subcutaneous administration of 3.0 µmol/kg dose of compound.
In assay [18] the test system is Rattus norvegicus. The experiment in a line: Catalytic action on male Wistar rats after subcutaneous administration of 1.0 µmol/kg dose of compound.
The subject of assay [19] is Rattus norvegicus. Kind of assay: Catalytic action on male Wistar rats after subcutaneous administration of 30 µmol/kg dose of compound.
The subject of assay [20] is Rattus norvegicus. The experiment in a line: Locomotor activity in male Wistar rats after a dose of 1.0 uM/kg, 30 min before 1 mg/kg of apomorphine administration. The assay is classed as functional.
The test system of assay [21] is Rattus norvegicus. The experiment in a line: Locomotor activity in male Wistar rats after a dose of 3.0 uM/kg, 30 min before 1 mg/kg of apomorphine administration. The assay is classed as functional.

pIC50: −log10 of the molar value.

Sequence of D(1A) dopamine receptor (P18901 whole entry): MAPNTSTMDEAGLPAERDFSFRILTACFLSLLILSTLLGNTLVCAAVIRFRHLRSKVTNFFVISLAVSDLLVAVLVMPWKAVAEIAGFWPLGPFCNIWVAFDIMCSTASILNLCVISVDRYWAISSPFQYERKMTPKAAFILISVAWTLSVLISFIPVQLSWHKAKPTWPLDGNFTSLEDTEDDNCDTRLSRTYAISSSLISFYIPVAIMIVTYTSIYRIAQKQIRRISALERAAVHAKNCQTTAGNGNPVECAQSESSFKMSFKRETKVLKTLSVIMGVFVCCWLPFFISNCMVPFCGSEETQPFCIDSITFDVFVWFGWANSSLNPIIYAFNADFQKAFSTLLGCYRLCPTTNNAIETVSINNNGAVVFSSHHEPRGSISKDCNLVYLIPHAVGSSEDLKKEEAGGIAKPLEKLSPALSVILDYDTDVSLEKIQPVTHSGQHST
Sequence of Histamine H1 receptor (P31390 whole entry): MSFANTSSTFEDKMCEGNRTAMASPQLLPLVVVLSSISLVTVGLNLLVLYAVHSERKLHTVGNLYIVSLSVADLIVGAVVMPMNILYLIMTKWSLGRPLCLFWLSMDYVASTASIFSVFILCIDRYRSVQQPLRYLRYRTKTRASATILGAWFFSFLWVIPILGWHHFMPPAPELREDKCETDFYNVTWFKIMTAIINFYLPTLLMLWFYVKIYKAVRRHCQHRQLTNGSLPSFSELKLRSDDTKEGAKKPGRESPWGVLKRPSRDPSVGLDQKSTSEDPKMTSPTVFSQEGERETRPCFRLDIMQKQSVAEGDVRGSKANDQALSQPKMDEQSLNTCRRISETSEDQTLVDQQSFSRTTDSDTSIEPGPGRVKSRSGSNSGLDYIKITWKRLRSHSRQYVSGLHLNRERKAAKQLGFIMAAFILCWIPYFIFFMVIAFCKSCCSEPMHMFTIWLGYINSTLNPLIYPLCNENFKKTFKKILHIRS
Description for D(1A) dopamine receptor: Inhibitory binding of [3H]SCH-23390 to Dopamine receptor D1 in membranes from rat corpus striatum

One may read the pIC50 as the IC50 on a negative log10 scale, so that one unit is a factor of ten. A higher pIC50 goes with a small IC50. The IC50 is the concentration that gives 50% inhibition. Low values mean inhibition by little substance, high ones a need for much substance. `CN1CCN(C2=Nc3ccccc3Nc3ccc(O)cc32)CC1`: the pIC50 against D(1A) dopamine receptor is 6.26; in assay [1] it was 7.43; in assay [2], 7.09; in assay [4], 7.46. Besides, the IC50 in assay [3] was 260 nM.
On to `CN1CCN(C2=Nc3cc(OS(=O)(=O)C(F)(F)F)ccc3Nc3ccccc32)CC1`, for which the negative logarithm of the IC50 (pIC50) is 6.14 at Histamine H1 receptor; 6.03 against D(1A) dopamine receptor; 7.46 in assay [1]; 6.21 in assay [2]; 6.26 in assay [4]. The compound further came in with an IC50 in [3] of over 1000 nM.
As for `CN1CCN(C2=Nc3cc(O)ccc3Nc3ccccc32)CC1`, the negative-log IC50 (pIC50) against D(1A) dopamine receptor was 5.01; in assay [1] it was 7.57; in [2] it was 6.36. In assay [3], this compound returned an IC50 of 1200 nM.
As to `CN1CCN(C2=Nc3ccccc3Nc3ccc(OS(=O)(=O)C(F)(F)F)cc32)CC1`, the pIC50 was 7.33 on Histamine H1 receptor; 7.19 at D(1A) dopamine receptor; 5.92 in assay [1]; 7.47 in assay [2]; 8.10 in assay [4]. Further, the Locomotor activity came to 8 in the assay with Rattus norvegicus [5], 87 in the assay with Rattus norvegicus [6], 102 in the assay on Rattus norvegicus [8] and 22 with Rattus norvegicus [10]. The Catalyptic action in the assay on Rattus norvegicus [7] and with Rattus norvegicus [9] was 0 each time. Also, the half-inhibitory concentration (IC50) in assay [3] worked out at 12 nM.
Consider `COc1ccc2c(c1)C(N1CCN(C)CC1)=Nc1ccccc1N2`, for which the negative logarithm of the IC50 (pIC50) was 6.26 at D(1A) dopamine receptor, 7.41 in assay [1], 7.68 in [2] and 7.92 in assay [4]. The IC50 in assay [3] turned out to be 120 nM.
With `COc1ccc2c(c1)N=C(N1CCN(C)CC1)c1ccccc1N2`, the negative logarithm of the IC50 (pIC50) against D(1A) dopamine receptor was 5.13; in assay [1], 7.72; in [2] it was 7.07. Moreover, the half-inhibitory concentration (IC50) in assay [3] amounted to 240 nM.
For the compound `CN1CCN(C2=Nc3cc(Cl)ccc3Nc3ccccc32)CC1` [CLOZAPINE], the figures for the Locomotor activity in the assay with Rattus norvegicus [5] and in the assay on Rattus norvegicus [8] were 7 and 98, respectively. Besides, the Catalyptic action in the assay on Rattus norvegicus [7] and in the assay with Rattus norvegicus [9] was 0 each time.
For `O=C(CCCN1CCC(O)(c2ccc(Cl)cc2)CC1)c1ccc(F)cc1` [HALOPERIDOL], the Catalyptic action in the assay on Rattus norvegicus [11] came to 75; in the assay on Rattus norvegicus [13], 100; in the assay with Rattus norvegicus [14], 0. The values for the Locomotor activity in the assay with Rattus norvegicus [12], in the assay with Rattus norvegicus [15] and in the assay on Rattus norvegicus [16] were 9, 1 and 88, respectively.
As to `CN1CCN(C2=Nc3ccccc3Nc3ccc(Cl)cc32)CC1` [ISOCLOZAPINE], the Catalyptic action with Rattus norvegicus [17] is 0; with Rattus norvegicus [18], 0; with Rattus norvegicus [7] it was 25; in the assay on Rattus norvegicus [19], 75; with Rattus norvegicus [13] it was 0. In addition, the results for the pIC50 (against D(1A) dopamine receptor; in assay [1]) were 7.96 and 8.22, respectively. Also, the Locomotor activity in the assay on Rattus norvegicus [8] came out at 3; with Rattus norvegicus [20], 82; in the assay with Rattus norvegicus [21] it was 65; in the assay with Rattus norvegicus [15], 114; in the assay with Rattus norvegicus [10] it was 3. In assay [3], this compound registered an IC50 of 64 nM.
